Patent US20250289806A1, “COMPOUNDS FOR PROLIFERATIVE DISORDERS” (UNIVERSITY OF MIAMI, priority 2022, published 2025)
Like-named read-outs stand apart in the source and are kept apart here. Values belong to the molecule of their own block, whether it stands above or below them.

Assays:
RS4; 11 = experiment: Cell viability assay, RS4; 11; format: cell-based; details: Homo sapiens
RPMI8226 = experiment: Cell viability assay, RPMI8226; format: cell-based; details: Homo sapiens, RPMI-8226
MV-4-11 = experiment: Cell viability assay, MV-4-11; format: cell-based; details: Homo sapiens, MV4-11
MOLM-13 = experiment: Cell viability assay, MOLM-13; format: cell-based; details: Homo sapiens
MEC-1 = experiment: Cell viability assay, MEC-1; format: cell-based; details: Homo sapiens, MEC1
K562 SF3B1 K666N = experiment: cells; details: Homo sapiens, K562, 72 h
THP-1 = experiment: Cell viability assay, THP-1; format: cell-based; details: Homo sapiens
HL-60 = experiment: Cell viability assay, HL-60; format: cell-based; details: Homo sapiens
MM-M1 = experiment: Cell viability assay, MM-M1; format: cell-based
NALM-6 = experiment: cells; details: Homo sapiens, NALM-6, 72 h
MOLT4 = experiment: Cell viability assay, MOLT4; format: cell-based; details: Homo sapiens
Kasumi-1 = experiment: Cell viability assay, Kasumi-1; format: cell-based; details: Homo sapiens
STK17A = target: T1, STK17A (Homo sapiens, UniProt Q9UEE5); experiment: Enzymatic activity assay (Reaction Biology Corporation), STK17A; format: biochemical
T1 construct: purchased Reaction Biology Corporation
T1 sequence (Q9UEE5 1-414): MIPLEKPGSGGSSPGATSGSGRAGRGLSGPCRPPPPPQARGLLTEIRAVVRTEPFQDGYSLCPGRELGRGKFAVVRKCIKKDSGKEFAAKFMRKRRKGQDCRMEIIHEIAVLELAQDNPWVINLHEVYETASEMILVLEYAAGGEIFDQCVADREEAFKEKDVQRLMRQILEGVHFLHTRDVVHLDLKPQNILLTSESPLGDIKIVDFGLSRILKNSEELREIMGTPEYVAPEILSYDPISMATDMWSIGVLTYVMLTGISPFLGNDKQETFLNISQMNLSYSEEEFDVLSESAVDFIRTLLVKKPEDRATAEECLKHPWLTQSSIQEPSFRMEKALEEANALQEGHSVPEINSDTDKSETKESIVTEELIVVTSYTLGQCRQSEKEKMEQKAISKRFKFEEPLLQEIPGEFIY
Experimental: (§1) All enzymatic assays and panel profiling studies are activity assays, which were carried out by Reaction Biology Corporation according to the company's protocols.

HEL = experiment: Cell viability assay, HEL; format: cell-based; details: Homo sapiens
K562 = experiment: Cell viability assay, K562; format: cell-based; details: Homo sapiens
OCI-AML3 = experiment: Cell viability assay, OCI-AML3; format: cell-based; details: Homo sapiens, OCI-AML-3
SKNO-1 = experiment: Cell viability assay, SKNO-1; format: cell-based
MDSL = experiment: cells; details: 72 h
SET-2 = experiment: Cell viability assay, SET-2; format: cell-based; details: Homo sapiens
HEL92.1.7 = experiment: cells; details: Homo sapiens, HEL 92.1.7, 72 h
KMS12PE = experiment: Cell viability assay, KMS12PE; format: cell-based; details: Homo sapiens, KMS-12-PE
MYLK4 = target: T2, MYLK4 (Homo sapiens, UniProt Q86YV6); experiment: Enzymatic activity assay (Reaction Biology Corporation), MYLK4; format: biochemical
T2 construct: purchased Reaction Biology Corporation
T2 sequence (Q86YV6 1-388): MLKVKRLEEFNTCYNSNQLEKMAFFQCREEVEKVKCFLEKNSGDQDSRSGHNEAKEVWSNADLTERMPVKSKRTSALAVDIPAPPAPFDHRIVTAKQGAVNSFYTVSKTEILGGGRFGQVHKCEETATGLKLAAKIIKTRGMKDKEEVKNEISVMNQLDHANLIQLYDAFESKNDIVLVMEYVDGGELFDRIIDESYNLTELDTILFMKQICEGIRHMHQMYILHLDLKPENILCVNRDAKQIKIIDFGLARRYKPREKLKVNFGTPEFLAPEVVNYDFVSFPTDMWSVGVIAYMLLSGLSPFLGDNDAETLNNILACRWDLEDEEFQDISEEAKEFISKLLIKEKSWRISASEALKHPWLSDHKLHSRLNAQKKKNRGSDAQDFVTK
Experimental: as §1

NALM-6 SF3B1 K666N = experiment: cells; details: Homo sapiens, NALM-6, 72 h
BJAB = experiment: Cell viability assay, BJAB; format: cell-based; details: Homo sapiens
U266B1 = experiment: Cell viability assay, U266B1; format: cell-based
TF1 = experiment: Cell viability assay, TF1; format: cell-based; details: Homo sapiens, TF-1
LP1 = experiment: Cell viability assay, LP1; format: cell-based; details: Homo sapiens, LP-1
RIVA = experiment: Cell viability assay, RIVA; format: cell-based
OPM2 = experiment: Cell viability assay, OPM2; format: cell-based; details: Homo sapiens, OPM-2
HEK293T = experiment: Cell viability assay, HEK293T (non-cancer cell line); format: cell-based; details: Homo sapiens, HEK-293T
SKMM2 = experiment: Cell viability assay, SKMM2; format: cell-based; details: Homo sapiens, SK-MM-2
Jurkat = experiment: Cell viability assay, Jurkat; format: cell-based; details: Homo sapiens
KMS12BM = experiment: Cell viability assay, KMS12BM; format: cell-based; details: Homo sapiens, KMS-12-BM
DDR1 = target: T3, DDR1 (Homo sapiens, UniProt Q08345); experiment: Enzymatic activity assay (Reaction Biology Corporation), DDR1; format: biochemical
T3 construct: purchased Reaction Biology Corporation
T3 sequence (Q08345 19-913): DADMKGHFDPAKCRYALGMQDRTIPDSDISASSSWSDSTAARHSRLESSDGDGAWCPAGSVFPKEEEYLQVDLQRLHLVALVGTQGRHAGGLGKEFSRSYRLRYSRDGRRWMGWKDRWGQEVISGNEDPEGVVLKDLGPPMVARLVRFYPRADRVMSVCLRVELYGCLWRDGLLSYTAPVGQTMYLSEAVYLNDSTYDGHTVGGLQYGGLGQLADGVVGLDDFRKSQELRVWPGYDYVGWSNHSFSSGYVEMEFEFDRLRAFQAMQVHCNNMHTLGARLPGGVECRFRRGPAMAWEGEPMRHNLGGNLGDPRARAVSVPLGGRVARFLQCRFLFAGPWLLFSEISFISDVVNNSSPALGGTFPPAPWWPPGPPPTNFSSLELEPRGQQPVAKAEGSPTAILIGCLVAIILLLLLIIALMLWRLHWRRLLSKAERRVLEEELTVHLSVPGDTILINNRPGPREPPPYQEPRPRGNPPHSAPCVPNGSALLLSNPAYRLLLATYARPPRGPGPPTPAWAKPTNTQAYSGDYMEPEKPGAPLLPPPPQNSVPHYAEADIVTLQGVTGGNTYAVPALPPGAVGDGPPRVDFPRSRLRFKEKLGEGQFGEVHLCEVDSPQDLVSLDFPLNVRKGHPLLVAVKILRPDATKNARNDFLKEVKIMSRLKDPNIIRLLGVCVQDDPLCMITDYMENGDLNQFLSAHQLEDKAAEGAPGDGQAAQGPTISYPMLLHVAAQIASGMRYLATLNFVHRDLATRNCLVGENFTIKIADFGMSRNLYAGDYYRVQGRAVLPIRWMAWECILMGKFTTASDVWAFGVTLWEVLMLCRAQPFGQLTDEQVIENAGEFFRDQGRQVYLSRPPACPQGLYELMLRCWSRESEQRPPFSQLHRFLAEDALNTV
Experimental: as §1

[1] = enzymatic activity assay, read-out: IC50 STK17A
[2] = multiple myeloma, cell viability, 72 hours
[3] = lymphoma, cell viability, 72 hours
[4] = multiple myeloma (Example 90 table)
[5] = enzymatic activity assay, read-out: IC50 MYLK4

- IC50 (RS4; 11; RS4, 11, acute lymphoblastic leukemia, cell viability, 72 hours): 8.37 µM
- IC50 (RPMI8226; RPMI8226, multiple myeloma, cell viability, 72 hours): 8.96 µM
- IC50 (MV-4-11; MV-4-11, acute myeloid leukemia, cell viability, 72 hours): 3690 nM
- IC50 (MOLM-13; MOLM-13, acute myeloid leukemia, cell viability, 72 hours): 924 nM
- IC50 (K562 SF3B1 K666N): 182 nM
- IC50 (THP-1; THP-1, acute myeloid leukemia, cell viability, 72 hours): 20 µM
- IC50 (HL-60; HL-60, acute myeloid leukemia, cell viability, 72 hours): > 100 µM
- IC50 (NALM-6): 5.5 µM
- IC50 (MOLT4; MOLT-4, MOLT4, acute lymphoblastic leukemia, cell viability, 72 hours): 16.1 µM
- IC50 (STK17A; [1]): < 50 nM
- IC50 (K562; K562, chronic myeloid leukemia, cell viability, 72 hours): 4.79 µM
- IC50 (OCI-AML3; OCI-AML3, acute myeloid leukemia, cell viability, 72 hours): > 100000 nM
- IC50 (SKNO-1; SKNO-1, acute myeloid leukemia, cell viability, 72 hours): 16.9 µM
- IC50 (MDSL): > 100 µM
- IC50 (HEL92.1.7): 769 nM
- IC50 (MYLK4): 50 to 100 nM
- IC50 (NALM-6 SF3B1 K666N): 908 nM
- IC50 (U266B1; U266B1, multiple myeloma, cell viability, 72 hours): > 100 µM
- IC50 (SKMM2; SKMM2, multiple myeloma, cell viability, 72 hours): > 100 µM
- IC50 (Jurkat; acute lymphoblastic leukemia, cell viability, 72 hours): 25.7 µM
SMILES: CC(C)NC(=O)c1ccc(Nc2nccc(-c3ccc4nc(N5CCCC5)ncc4c3)n2)cc1 [Example 7]
- IC50 (MEC-1; MEC-1, lymphoma, cell viability, 72 hours): > 100 µM
- IC50 (MM-M1; MM-M1, multiple myeloma, cell viability, 72 hours): > 100 µM
- IC50 (Kasumi-1; Kasumi-1, acute myeloid leukemia, cell viability, 72 hours): 8.1 µM
- IC50 (HEL; acute myeloid leukemia, cell viability, 72 hours): 3.6 µM
- IC50 (SET-2; SET-2, acute myeloid leukemia, cell viability, 72 hours): 3710 nM
- IC50 (KMS12PE; [2]): > 100000 nM
- IC50 (BJAB; [3]): > 100 µM
- IC50 (TF1; TF1, acute myeloid leukemia, cell viability, 72 hours): > 100 µM
- IC50 (LP1; LP1, multiple myeloma, cell viability, 72 hours): 31.6 µM
- IC50 (RIVA; [3]): > 100 µM
- IC50 (OPM2; OPM2, multiple myeloma, cell viability, 72 hours): 23.1 µM
- IC50 (HEK293T; non-hematological cell line, cell viability, 72 hours): > 100 µM
- IC50 (KMS12BM; [2]): 2470 nM

- IC50 (DDR1): < 50 nM
- IC50 (STK17A; [1]): < 50 nM
SMILES: OCCN1CCC(n2cc(Nc3nccc(-c4ccc5nc(N6CCOCC6)ncc5c4)n3)cn2)CC1 [Example 29]

- IC50 (RS4; 11; RS4-11, RS411, acute lymphoblastic leukemia (Example 90 table)): 10.1 µM
- IC50 (RPMI8226; RPMI8226, multiple myeloma (Example 90 table)): 2.7 µM
- IC50 (MV-4-11; MV-4-11, acute myeloid leukemia (Example 90 table)): 321 nM
- IC50 (MOLM-13; MOLM-13, acute myeloid leukemia (Example 90 table)): 196 nM
- IC50 (THP-1; THP-1, acute myeloid leukemia (Example 90 table)): 1.15 µM
- IC50 (DDR1): < 50 nM
- IC50 (HL-60; HL-60, HL60, acute myeloid leukemia (Example 90 table)): 5 µM
- IC50 (MOLT4; MOLT-4, acute lymphoblastic leukemia (Example 90 table)): > 100 µM
- IC50 (STK17A; [1]): < 50 nM
- IC50 (K562; K562, chronic myeloid leukemia (Example 90 table)): 8.71 µM
- IC50 (OCI-AML3; OCI-AML3, acute myeloid leukemia (Example 90 table)): 886 nM
- IC50 (SKNO-1; SKNO-1, acute myeloid leukemia (Example 90 table)): 14.8 µM
- IC50 (MYLK4; [5]): < 50 nM
- IC50 (U266B1; U266B1, multiple myeloma (Example 90 table)): 12.6 µM
- IC50 (SKMM2; SKMM2, multiple myeloma (Example 90 table)): 6.62 µM
- IC50 (Jurkat; acute lymphoblastic leukemia (Example 90 table)): 6.14 µM
SMILES: c1cc(-c2ccc3nc(N4CCOCC4)ncc3c2)nc(Nc2cnn(C3CCNCC3)c2)n1 [Example 27]
- IC50 (MEC-1; MEC-1, lymphoma (Example 90 table)): 14.2 µM
- IC50 (MM-M1; MM-M1, multiple myeloma (Example 90 table)): 8.07 µM
- IC50 (Kasumi-1; Kasumi-1, acute myeloid leukemia (Example 90 table)): 0.53 µM
- IC50 (HEL; acute myeloid leukemia (Example 90 table)): > 100 µM
- IC50 (SET-2; SET-2, acute myeloid leukemia (Example 90 table)): 648 nM
- IC50 (KMS12PE; [4]): 2810 nM
- IC50 (BJAB; lymphoma (Example 90 table)): 12.1 µM
- IC50 (TF1; TF1, acute myeloid leukemia (Example 90 table)): 15 µM
- IC50 (LP1; LP1, multiple myeloma (Example 90 table)): 1.11 µM
- IC50 (RIVA; lymphoma (Example 90 table)): 9.2 µM
- IC50 (OPM2; OPM2, multiple myeloma (Example 90 table)): 6.85 µM
- IC50 (HEK293T; non-hematological cell line (Example 90 table)): > 100 µM
- IC50 (KMS12BM; [4]): 2810 nM

SMILES: c1cc(-c2ccc3nc(N4CCCC4)ncc3c2)nc(Nc2ccc(N3CCNCC3)cc2)n1 [Example 1, N-(4-(piperazin-1-yl)phenyl)-4-(2-(pyrrolidin-1-yl)quinazolin-6-yl)pyrimidin-2-amine]
- IC50 (STK17A): 50 to 100 nM
- IC50 (MYLK4): < 50 nM

- IC50 (STK17A; [1]): < 50 nM
- IC50 (MYLK4): < 50 nM
SMILES: c1cc(-c2ccc3nc(N4CCCC4)ncc3c2)nc(Nc2ccc(N3CCOCC3)cc2)n1 [Example 2]

- IC50 (DDR1): > 100 nM
- IC50 (STK17A; [1]): < 50 nM
- IC50 (MYLK4): 50 to 100 nM
SMILES: CC(C)NC(=O)c1ccc(Nc2nccc(-c3ccc4nc(N5CCOCC5)ncc4c3)n2)cc1 [Example 20]

- IC50 (DDR1): 50 to 100 nM
- IC50 (STK17A; [1]): < 50 nM
- IC50 (MYLK4; [5]): < 50 nM
SMILES: c1cc(-c2ccc3nc(N4CCCC4)ncc3c2)nc(Nc2cnn(C3CCNCC3)c2)n1 [Example 3]

- IC50 (STK17A; [1]): < 50 nM
- IC50 (MYLK4): < 50 nM
SMILES: c1cc(-c2ccc3nc(N4CCCC4)ncc3c2)nc(Nc2ccc(N3CCNCC3)nc2)n1 [Example 4]

- IC50 (STK17A; [1]): < 50 nM
- IC50 (MYLK4; [5]): < 50 nM
SMILES: OCCn1cc(Nc2nccc(-c3ccc4nc(N5CCOCC5)ncc4c3)n2)cn1 [Example 28]

- IC50 (STK17A; [1]): > 100 nM
SMILES: O=C(NC1CCNCC1)c1ccc(Nc2nccc(-c3ccc4nc(N5CCCC5)ncc4c3)n2)cc1 [Example 5]

- IC50 (STK17A; [1]): > 100 nM
SMILES: CC(C)NC(=O)c1cccc(Nc2nccc(-c3ccc4nc(N5CCCC5)ncc4c3)n2)c1 [Example 6]

- IC50 (STK17A; [1]): < 50 nM
- IC50 (MYLK4): < 50 nM
SMILES: c1cc(-c2ccc3nc(N4CCOCC4)ncc3c2)nc(Nc2ccc(N3CCNCC3)cc2)n1 [Example 26]
